Results from PubChem BioAssay (NCI).
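GI50 is the concentration that inhibits growth by half. Definition used: TGI = concentration required for complete inhibition of growth.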

Assays:
Assay in all cases: NCI-60 cell line screen, 384-well format
SF-539 CNS = system: SF-539 CNS
SF-295 CNS = system: SF-295 CNS
HOP-62 NSCLC = system: HOP-62 NSCLC
SR leukemia = system: SR leukemia
A549 NSCLC = system: A549 NSCLC
SNB-19 CNS = system: SNB-19 CNS
UACC-257 melanoma = system: UACC-257 melanoma
SNB-75 CNS = system: SNB-75 CNS
HCT-15 colon = system: HCT-15 colon
SK-MEL-2 melanoma = system: SK-MEL-2 melanoma
BT-549 breast = system: BT-549 breast
UO-31 renal = system: UO-31 renal
OVCAR-5 ovarian = system: OVCAR-5 ovarian
HT29 colon = system: HT29 colon
NCI-H522 lung = system: NCI-H522 lung
NCI-H460 NSCLC = system: NCI-H460 NSCLC
786-0 renal = system: 786-0 renal
MDA-MB-435 melanoma = system: MDA-MB-435 melanoma
IGROV1 ovarian = system: IGROV1 ovarian
SK-MEL-5 melanoma = system: SK-MEL-5 melanoma
M14 melanoma = system: M14 melanoma
OVCAR-4 ovarian = system: OVCAR-4 ovarian
MCF7 breast = system: MCF7 breast
DU-145 prostate = system: DU-145 prostate
OVCAR-8 ovarian = system: OVCAR-8 ovarian
EKVX NSCLC = system: EKVX NSCLC
TK-10 renal = system: TK-10 renal
K-562 leukemia = system: K-562 leukemia
PC-3 prostate = system: PC-3 prostate
T-47D breast = system: T-47D breast
KM12 colon = system: KM12 colon
MDA-MB-468 breast = system: MDA-MB-468 breast
COLO 205 colon = system: COLO 205 colon
NCI-H322M lung = system: NCI-H322M lung
HOP-92 NSCLC = system: HOP-92 NSCLC
U251 glioblastoma = system: U251 glioblastoma
SK-OV-3 ovarian = system: SK-OV-3 ovarian
SW-620 colon = system: SW-620 colon
MALME-3M melanoma = system: MALME-3M melanoma
OVCAR-3 ovarian = system: OVCAR-3 ovarian
SF-268 CNS = system: SF-268 CNS
RXF 393 renal = system: RXF 393 renal
A498 renal = system: A498 renal
HL-60(TB) leukemia = system: HL-60(TB) leukemia
HS 578T breast = system: HS 578T breast
NCI-H23 lung = system: NCI-H23 lung
CAKI-1 renal = system: CAKI-1 renal
MOLT-4 leukemia = system: MOLT-4 leukemia
SN12C renal = system: SN12C renal
UACC-62 melanoma = system: UACC-62 melanoma
SK-MEL-28 melanoma = system: SK-MEL-28 melanoma
ACHN renal = system: ACHN renal
MDA-MB-231 breast = system: MDA-MB-231 breast
NCI-H226 lung = system: NCI-H226 lung
HCT-116 colon = system: HCT-116 colon

## CC(C)N(C[C@H]1O[C@@H](n2cnc3c(N)ncnc32)[C@H](O)[C@@H]1O)C1CC(CCc2nc3ccc(C(C)(C)C)cc3[nH]2)C1 (stereo not given in full)
SF-539 CNS
  GI50: 43.9 µM
  TGI: > 100 µM
SF-295 CNS
  GI50: > 100 µM
  TGI: > 100 µM
HOP-62 NSCLC
  GI50: > 100 µM
  TGI: > 100 µM
SR leukemia
  GI50: 17.9 µM
  TGI: 31.8 µM
A549 NSCLC
  GI50: > 100 µM
  TGI: > 100 µM
SNB-19 CNS
  GI50: > 100 µM
  TGI: > 100 µM
UACC-257 melanoma
  GI50: 18.5 µM
  TGI: 33.4 µM
SNB-75 CNS
  GI50: 22.5 µM
  TGI: 44.9 µM
HCT-15 colon
  GI50: > 100 µM
  TGI: > 100 µM
SK-MEL-2 melanoma
  GI50: 15.8 µM
  TGI: 29.3 µM
BT-549 breast
  GI50: 18 µM
  TGI: 32.5 µM
UO-31 renal
  GI50: > 100 µM
  TGI: > 100 µM
OVCAR-5 ovarian
  GI50: > 100 µM
  TGI: > 100 µM
HT29 colon
  GI50: 19.1 µM
  TGI: 35.3 µM
NCI-H522 lung
  GI50: 20.1 µM
  TGI: 35.3 µM
NCI-H460 NSCLC
  GI50: 20.3 µM
  TGI: 43 µM
786-0 renal
  GI50: > 100 µM
  TGI: > 100 µM
MDA-MB-435 melanoma
  GI50: 17.9 µM
  TGI: 31.8 µM
IGROV1 ovarian
  GI50: 51 µM
  TGI: > 100 µM
SK-MEL-5 melanoma
  GI50: 23.9 µM
  TGI: 69.4 µM
M14 melanoma
  GI50: 20 µM
  TGI: 37.1 µM
OVCAR-4 ovarian
  GI50: 79.9 µM
  TGI: > 100 µM
MCF7 breast
  GI50: 20 µM
  TGI: 45.2 µM
DU-145 prostate
  GI50: > 100 µM
  TGI: > 100 µM
OVCAR-8 ovarian
  GI50: > 100 µM
  TGI: > 100 µM
EKVX NSCLC
  GI50: 88.1 µM
  TGI: > 100 µM
TK-10 renal
  GI50: 83.9 µM
  TGI: > 100 µM
K-562 leukemia
  GI50: 31 µM
  TGI: > 100 µM
PC-3 prostate
  GI50: 47 µM
  TGI: > 100 µM
T-47D breast
  GI50: 39 µM
  TGI: > 100 µM
KM12 colon
  GI50: 39 µM
  TGI: > 100 µM
MDA-MB-468 breast
  GI50: 24.8 µM
  TGI: 50.1 µM
COLO 205 colon
  GI50: 25.6 µM
  TGI: 58.6 µM
NCI-H322M lung
  GI50: > 100 µM
  TGI: > 100 µM
HOP-92 NSCLC
  GI50: 19.2 µM
  TGI: 40.9 µM
U251 glioblastoma
  GI50: 41.7 µM
  TGI: > 100 µM
SK-OV-3 ovarian
  GI50: > 100 µM
  TGI: > 100 µM
SW-620 colon
  GI50: 52.3 µM
  TGI: > 100 µM
MALME-3M melanoma
  GI50: 18 µM
  TGI: 32 µM
OVCAR-3 ovarian
  GI50: 49.6 µM
  TGI: > 100 µM
SF-268 CNS
  GI50: 22.9 µM
  TGI: 47.9 µM
RXF 393 renal
  GI50: 25.3 µM
  TGI: 79 µM
A498 renal
  GI50: > 100 µM
  TGI: > 100 µM
HL-60(TB) leukemia
  GI50: 13.3 µM
  TGI: 26 µM
HS 578T breast
  GI50: 20.5 µM
  TGI: 37 µM
NCI-H23 lung
  GI50: 46.6 µM
  TGI: > 100 µM
CAKI-1 renal
  GI50: > 100 µM
  TGI: > 100 µM
MOLT-4 leukemia
  GI50: 18.8 µM
  TGI: 32.8 µM
SN12C renal
  GI50: > 100 µM
  TGI: > 100 µM
UACC-62 melanoma
  GI50: 16.9 µM
  TGI: 30.7 µM
SK-MEL-28 melanoma
  GI50: 18 µM
  TGI: 31.9 µM
ACHN renal
  GI50: > 100 µM
  TGI: > 100 µM
MDA-MB-231 breast
  GI50: 35.4 µM
  TGI: > 100 µM
NCI-H226 lung
  GI50: > 100 µM
  TGI: > 100 µM
HCT-116 colon
  GI50: 41.9 µM
  TGI: > 100 µM
